Results: patent US5330992A, “1-cyclopropyl-4-pyridyl-quinolinones” (priority 1992, dated 1994)
Read-outs that look alike come from different tables or passages of the source.

How the values were obtained:
human topoisomerase II = target: T1, human topoisomerase II (Homo sapiens, UniProt P11388); test: Mammalian Topoisomerase II Inhibition Assay (DNA-topo II complex formation); format: biochemical; conditions: read-out: TopoII Inh. EC50
T1 construct: Topo II was purified from late log phase suspension cultures of HeLa WIS; endogenous in cells; host or cells: HeLa WIS suspension cultures, late log phase (enzyme purified from the cells)
Protocol: Mammalian Topoisomerase II Inhibition Assay Procedure
The assay quantitates the amount of topo II covalently complexed by DNA at equilibrium during a topo II reaction. This assay determines the potential of a compound to stabilize this complex, which potential is closely related to the cytotoxicity of the compound.
Assays (in duplicate) were assembled at 4° C.
4 ng 3' end labeled (^32 P) pBR322 DNA (10^7 DMP/μg)
The assay mix including the test compound was incubated for 20 minutes at 37° C. The reaction was terminated at 37° C. by the addition of 3 μl 10% SDS followed by the addition of 266 μl 10 mM Tris-Cl pH 7.5, 20 μg/ml BSA, 20 μg/ml calf thymus DNA, 1% SDS.
A SDS/protein precipitate was formed by the addition of 28 μl 2.5M KCl followed by chilling on ice for a minimum of 10 minutes. The precipitate was collected and washed with a Brandell cell harvester on a GFB glass fiber filter membrane as follows. The contents of the assay tube were drawn up into the harvester. The tube was then rinsed 7X with 10 mM Tris-Cl pH 7.5, 1 mM EDTA and 100 mM KCl. […] After drying, CPM was determined by liquid scintillation counting with 5 ml Biofluor (NEN Research Products) or Readisafe (Beckman Instruments Inc.) cocktail.
This solution then was diluted 1/5 into water and serially thereafter in either 0.02N sodium hydroxide or 0.04N hydrogen chloride, respectively. The stock solution and serial dilution of the test compound was stored at -20° C. prior to testing.
Screening of test compound--As an initial screen, the test compound was tested at a final concentration of 2, 20 and 200 μg/ml. The compound was then retested at a range of concentrations (usually 2-3X steps) bridging their approximate EC50 's, as estimated by the prescreen.
Controls--A solvent control which indicates the base level of topo II-DNA complex formed in the absence of the test compound was included in each test. A control, in which topo II was omitted, was included for each test compound at the highest drug concentration tested.
Reference Agent--A dose response curve with mAMSA at 0.01, 0.08, 0.16, 0.32, 1.0 and 10 μg/ml was included in each test.
The maximal DNA-topo II complex formed is taken as that equal to that formed at the nearly saturating dose of mAMSA (10 μg/ml).

[1] = system: P388 murine leukemia cells; test: Malignant cell cytotoxicity, one-hour exposure (clonogenic survival in soft agar); format: cell-based; conditions: Mus musculus, 1 hr exposure, read-out: IC50 P388 1 hr. exp.
Protocol: (§1) Examples of compound I having Topo II activity were tested for malignant cell cytotoxicity. In vitro cytotoxicity was assayed by determining cell survival following exposure of P388 murine leukemia cells to a range of test compound concentrations. Cytotoxicity was quantitated following either a one-hour exposure or continuous exposure of P388 cells to test compound.
(§2) Cytotoxicity following a one-hour exposure of cells to drug was assayed by quantitating clonogenic cell survival according to a published procedure [Freshney, R. L. (1987) Culture of Animal Cells. A Manual of Basic Technique. Wiley-Liss Inc., New York, N.Y., pp. 140-144]. Briefly, following drug exposure cells were plated in soft agar and incubated (37°, 5% CO2) for 7-10 days during which time viable cells form visible colonies. Cytotoxicity following continuous exposure of cells to test compound was assayed by quantitating total P388 cells on a Coultier Counter following a 48-hour co-incubation of test compound with cells. P388 cells were maintained in log phase throughout the duration of cytotoxicity assays.
(§3) The percentage of cells surviving relative to an untreated control was graphed as a function of increasing drug concentration.

[2] = system: P388 murine leukemia cells; test: Malignant cell cytotoxicity, continuous 48-hour exposure (Coulter Counter); format: cell-based; conditions: Mus musculus, read-out: IC50 P388 cont. exp.
Protocol: as §1, §2, §3

[3] = EC50 = concentration with activity equal to EC50 of reference mAMSA

T1 sequence (P11388 whole entry): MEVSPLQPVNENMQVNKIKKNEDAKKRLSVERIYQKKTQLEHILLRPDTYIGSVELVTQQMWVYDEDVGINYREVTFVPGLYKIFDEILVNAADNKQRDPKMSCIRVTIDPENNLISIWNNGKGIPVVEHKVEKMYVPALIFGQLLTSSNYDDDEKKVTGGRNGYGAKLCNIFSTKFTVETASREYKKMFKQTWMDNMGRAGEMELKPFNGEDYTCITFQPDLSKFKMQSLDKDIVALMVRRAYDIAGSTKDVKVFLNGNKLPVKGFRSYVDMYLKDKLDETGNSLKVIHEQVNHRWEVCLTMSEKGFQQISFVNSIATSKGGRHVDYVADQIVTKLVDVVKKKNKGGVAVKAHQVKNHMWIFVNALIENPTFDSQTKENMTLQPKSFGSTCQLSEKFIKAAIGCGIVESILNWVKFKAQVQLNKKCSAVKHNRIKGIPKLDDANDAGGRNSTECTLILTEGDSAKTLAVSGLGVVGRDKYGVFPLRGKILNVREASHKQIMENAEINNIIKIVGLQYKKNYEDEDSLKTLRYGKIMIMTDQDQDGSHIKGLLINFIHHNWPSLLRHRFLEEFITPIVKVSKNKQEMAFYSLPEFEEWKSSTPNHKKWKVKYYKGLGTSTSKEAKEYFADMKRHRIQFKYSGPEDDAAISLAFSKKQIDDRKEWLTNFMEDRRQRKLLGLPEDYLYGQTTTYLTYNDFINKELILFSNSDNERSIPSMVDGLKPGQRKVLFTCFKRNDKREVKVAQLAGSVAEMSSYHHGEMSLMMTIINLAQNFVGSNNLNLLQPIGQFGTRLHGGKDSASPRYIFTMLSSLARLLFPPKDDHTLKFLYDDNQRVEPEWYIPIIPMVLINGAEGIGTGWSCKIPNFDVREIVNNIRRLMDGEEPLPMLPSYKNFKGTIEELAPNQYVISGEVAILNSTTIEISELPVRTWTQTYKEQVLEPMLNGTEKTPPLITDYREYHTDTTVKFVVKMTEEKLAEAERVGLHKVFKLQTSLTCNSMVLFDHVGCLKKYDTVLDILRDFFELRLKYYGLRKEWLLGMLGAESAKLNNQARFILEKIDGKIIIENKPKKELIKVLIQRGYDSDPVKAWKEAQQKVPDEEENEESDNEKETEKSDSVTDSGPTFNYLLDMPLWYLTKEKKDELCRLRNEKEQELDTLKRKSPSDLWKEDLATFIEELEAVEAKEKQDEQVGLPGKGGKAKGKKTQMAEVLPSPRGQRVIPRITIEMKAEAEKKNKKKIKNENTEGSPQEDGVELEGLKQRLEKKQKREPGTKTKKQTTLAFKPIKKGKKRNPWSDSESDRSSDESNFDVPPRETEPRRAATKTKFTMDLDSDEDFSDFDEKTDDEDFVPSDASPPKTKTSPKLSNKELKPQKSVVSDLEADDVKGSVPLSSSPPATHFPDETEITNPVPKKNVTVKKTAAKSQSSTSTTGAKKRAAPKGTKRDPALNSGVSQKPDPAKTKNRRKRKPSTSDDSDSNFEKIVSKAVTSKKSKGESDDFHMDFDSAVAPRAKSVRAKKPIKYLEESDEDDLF

| EC50 (human topoisomerase II; [3]) [µM] | EC50 (human topoisomerase II; * Bell-shaped curve, E = extrapolated) [µM] | EC50 (human topoisomerase II; * Bell-shaped curve) [µM] | Structure (SMILES) | IC50 [1] [µM] | IC50 [2] [µM] |
| --- | --- | --- | --- | --- | --- |
| 37 |  |  | COc1cccc(OC)c1Cc1cn(C2CC2)c2c(F)c(-c3cc(C)nc(C)c3)c(F)cc2c1=O [Example 1, 1-Cyclopropyl-6,8-difluoro-7-[2,6-dimethyl-4-pyridinyl]-3-[2,6-dimethoxyphenylmethyl]-1,4-dihydro-quinolin-4-one] | 80 | 20 |
| 1 |  |  | Cc1cc(-c2c(F)cc3c(=O)c(Cc4ccc(F)cc4O)cn(C4CC4)c3c2F)cc(C)n1 [Example 2, 1-cyclopropyl-6,8-difluoro-7-[2,6-dimethyl-4-pyridinyl]-3-[4-fluoro-2-hydroxyphenylmethyl) -4(H)-quinolone] | 1.6 |  |
| 12 |  |  | Cc1cc(-c2c(F)cc3c(=O)c(Cc4ccccn4)cn(C4CC4)c3c2F)cc(C)n1 [Example 4] |  | 4 |
| > 190 |  |  | COc1cc(Cc2cn(C3CC3)c3c(F)c(-c4cc(C)nc(C)c4)c(F)cc3c2=O)cc(OC)c1OC [Example 5] |  | 18 |
| 7.7 |  |  | Cc1cc(-c2c(F)cc3c(=O)c(Cc4ccc(Cl)cc4)cn(C4CC4)c3c2F)cc(C)n1 [Example 6] | 20 | 6.1 |
|  | 14 |  | COc1ccc(Cc2cn(C3CC3)c3c(F)c(-c4cc(C)nc(C)c4)c(F)cc3c2=O)cc1 [Example 7] | 21 | 14 |
| 11 |  |  | COc1ccccc1Cc1cn(C2CC2)c2c(F)c(-c3cc(C)nc(C)c3)c(F)cc2c1=O [Example 8] | 37 | 6.9 |
| 14 |  |  | COc1cccc(Cc2cn(C3CC3)c3c(F)c(-c4cc(C)nc(C)c4)c(F)cc3c2=O)c1 [Example 9] | 20 | 6.1 |
|  |  | 34 | Cc1cc(-c2c(F)cc3c(=O)c(Cc4ccc5c(c4)OCO5)cn(C4CC4)c3c2F)cc(C)n1 [Example 10] |  | 8.5 |
| > 210 |  |  | COc1cccc(Cc2cn(C3CC3)c3c(F)c(-c4cc(C)nc(C)c4)c(F)cc3c2=O)c1OC [Example 11] |  | 8.9 |
| > 210 |  |  | COc1ccc(Cc2cn(C3CC3)c3c(F)c(-c4cc(C)nc(C)c4)c(F)cc3c2=O)c(OC)c1 [Example 12] | > 200 | 7.4 |
| 9.1 |  |  | Cc1cc(-c2c(F)cc3c(=O)c(Cc4ccncc4)cn(C4CC4)c3c2F)cc(C)n1 [Example 13] |  | 2.3 |
| > 190 |  |  | COc1cc(OC)c(Cc2cn(C3CC3)c3c(F)c(-c4cc(C)nc(C)c4)c(F)cc3c2=O)c(OC)c1 [Example 14] |  |  |
| 200 |  |  | Cc1cc(-c2c(F)cc3c(=O)c(Cc4ccccc4C(=O)O)cn(C4CC4)c3c2F)cc(C)n1 [Example 15] |  |  |
| 5.1 |  |  | Cc1cc(-c2c(F)cc3c(=O)c(Cc4ccc[nH]4)cn(C4CC4)c3c2F)cc(C)n1 [Example 16] | 0.93 |  |
| > 210 |  |  | COc1ccc(Cc2cn(C3CC3)c3c(F)c(-c4cc(C)nc(C)c4)c(F)cc3c2=O)c(OC)c1C [Example 17] |  |  |
| 47 |  |  | CC(=O)Nc1ccc(Cc2cn(C3CC3)c3c(F)c(-c4cc(C)nc(C)c4)c(F)cc3c2=O)cc1 [Example 19] |  |  |
| 4.6 |  |  | Cc1cc(-c2c(F)cc3c(=O)c(Cc4c(CO)cnc(C)c4O)cn(C4CC4)c3c2F)cc(C)n1 [Example 21] |  |  |

| EC50 (human topoisomerase II; [3]) [µM] | EC50 (human topoisomerase II; * Bell-shaped curve, E = extrapolated) [µM] | EC50 (human topoisomerase II; * Bell-shaped curve) [µM] | Structure (SMILES) | IC50 [1] [µM] | IC50 [2] [µM] |
| --- | --- | --- | --- | --- | --- |
| 4.7 |  |  | Cc1cc(-c2c(F)cc3c(=O)c(Cc4ccccc4NC(=O)C(F)(F)F)cn(C4CC4)c3c2F)cc(C)n1 [Example 22] |  |  |
| 20 |  |  | COc1ccc(OC)c(Cc2cn(C3CC3)c3c(F)c(-c4cc(C)nc(C)c4)c(F)cc3c2=O)c1 [Example 23] |  |  |
| 1.6 |  |  | Cc1cc(-c2c(F)cc3c(=O)c(Cc4c[nH]cn4)cn(C4CC4)c3c2F)cc(C)n1 [Example 24] | 0.39 |  |
| 3.3 |  |  | Cc1cc(-c2c(F)cc3c(=O)c(Cc4ccccc4NS(C)(=O)=O)cn(C4CC4)c3c2F)cc(C)n1 [Example 25] |  |  |
| 1.2 |  |  | Cc1cc(-c2c(F)cc3c(=O)c(Cc4ccc(O)cc4)cn(C4CC4)c3c2F)cc(C)n1 [Example 27, 1-Cyclopropyl-6,8-difluoro-7-[2,6-dimethyl-4-pyridinyl]-3-[4-hydroxyphenylmethyl]-1,4-dihydro-quinoline-4-one] | 1.5 | 0.45 |
| 7.6 |  |  | COc1cc(Cc2cn(C3CC3)c3c(F)c(-c4cc(C)nc(C)c4)c(F)cc3c2=O)cc(OC)c1O [Example 28] | 8.2 | 4.6 |
| 0.6 |  |  | Cc1cc(-c2c(F)cc3c(=O)c(Cc4cc(O)c(O)c(O)c4)cn(C4CC4)c3c2F)cc(C)n1 [Example 29] | 3 | 8 |
| 1.1 |  |  | Cc1cc(-c2c(F)cc3c(=O)c(Cc4cccc(O)c4)cn(C4CC4)c3c2F)cc(C)n1 [Example 31] | 2.2 | 1.5 |
| 0.16 |  |  | Cc1cc(-c2c(F)cc3c(=O)c(Cc4ccc(O)c(O)c4)cn(C4CC4)c3c2F)cc(C)n1 [Example 32] | 0.6 | 1.4 |
| 0.36 |  |  | Cc1cc(-c2c(F)cc3c(=O)c(Cc4cccc(O)c4O)cn(C4CC4)c3c2F)cc(C)n1 [Example 34] | 0.88 | 0.32 |
| 0.098 |  |  | Cc1cc(-c2c(F)cc3c(=O)c(Cc4c(O)cc(O)cc4O)cn(C4CC4)c3c2F)cc(C)n1 [Example 35] | 0.47 |  |
| 0.2 |  |  | Cc1cc(-c2c(F)cc3c(=O)c(Cc4ccc(O)c(C)c4O)cn(C4CC4)c3c2F)cc(C)n1 [Example 36] |  |  |
| 0.15 |  |  | Cc1cc(-c2c(F)cc3c(=O)c(Cc4cccc(F)c4O)cn(C4CC4)c3c2F)cc(C)n1 [Example 37] | 125 |  |
| 0.16 |  |  | Cc1cc(-c2c(F)cc3c(=O)c(Cc4cc(O)ccc4O)cn(C4CC4)c3c2F)cc(C)n1 [Example 38] | 0.36 |  |
| 7.2 |  |  | Cc1cc(-c2c(F)cc3c(=O)c(Cc4ccc(N)cc4)cn(C4CC4)c3c2F)cc(C)n1 [Example 39] |  |  |
| 2.1 |  |  | Cc1cc(-c2c(F)cc3c(=O)c(Cc4ccccc4N)cn(C4CC4)c3c2F)cc(C)n1 [Example 41a] |  |  |
| 5.1 |  |  | CC(=O)Nc1ccccc1Cc1cn(C2CC2)c2c(F)c(-c3cc(C)nc(C)c3)c(F)cc2c1=O [Example 41b] |  |  |
